Settings: 101.33 kPa, Liquid; for viscosity: Concentric cylinders viscometry; for thermal conductivity: Hot wire method

OCCO [1,2-ethanediol]
Settings | thermal conductivity [W/m/K] | viscosity [mPa·s]
283.15 K | 0.243 | 35.44
288.15 K | – | 28
293.15 K | – | 21.89
298.15 K | – | 17.25
303.15 K | 0.246 | 13.86
308.15 K | – | 11.64
313.15 K | – | 9.62
323.15 K | 0.249 | 7.21
343.15 K | 0.259 | –
